Experiments:
[1] = biological target: mutant CRAF enzyme (RAF1 Y340D and Y341D) (Homo sapiens (Human), UniProt P04049, Y340D/Y341D); experiment: RAF inhibition assay (TB-PMAP2K1 kit), mutant CRAF; type: biochemical; details: FLUORESCEIN-MAP2K1 substrate, 60 min reaction
[2] = biological target: mutant BRAF enzyme (BRAF-V600E) (Homo sapiens (Human), UniProt P15056, V600E); experiment: RAF inhibition assay (TB-PMAP2K1 kit), BRAF-V600E; type: biochemical; details: FLUORESCEIN-MAP2K1 substrate, 60 min reaction
Chain of mutant BRAF enzyme (BRAF-V600E) (P15056 whole entry V600E): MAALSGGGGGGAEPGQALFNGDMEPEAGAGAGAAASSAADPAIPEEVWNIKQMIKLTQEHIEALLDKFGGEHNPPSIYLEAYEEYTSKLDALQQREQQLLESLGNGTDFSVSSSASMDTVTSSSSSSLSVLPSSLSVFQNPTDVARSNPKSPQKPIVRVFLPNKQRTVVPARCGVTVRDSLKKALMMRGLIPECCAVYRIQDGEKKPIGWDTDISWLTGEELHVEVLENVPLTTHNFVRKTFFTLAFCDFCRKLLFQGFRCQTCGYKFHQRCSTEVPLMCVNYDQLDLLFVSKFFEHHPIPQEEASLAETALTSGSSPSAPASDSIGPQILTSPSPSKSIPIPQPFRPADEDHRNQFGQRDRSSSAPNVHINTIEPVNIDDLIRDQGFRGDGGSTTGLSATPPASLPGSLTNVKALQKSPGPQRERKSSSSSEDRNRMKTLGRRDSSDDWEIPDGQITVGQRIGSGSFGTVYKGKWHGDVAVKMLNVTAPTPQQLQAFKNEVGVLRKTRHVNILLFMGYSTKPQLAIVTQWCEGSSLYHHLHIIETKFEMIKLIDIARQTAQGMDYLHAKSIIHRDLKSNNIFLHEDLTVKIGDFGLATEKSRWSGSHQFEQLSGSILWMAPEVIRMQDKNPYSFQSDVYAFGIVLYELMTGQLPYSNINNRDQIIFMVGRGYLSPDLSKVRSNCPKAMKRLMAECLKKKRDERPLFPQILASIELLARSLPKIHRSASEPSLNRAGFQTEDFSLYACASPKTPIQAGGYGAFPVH

Chain of mutant CRAF enzyme (RAF1 Y340D and Y341D) (P04049 whole entry Y340D/Y341D): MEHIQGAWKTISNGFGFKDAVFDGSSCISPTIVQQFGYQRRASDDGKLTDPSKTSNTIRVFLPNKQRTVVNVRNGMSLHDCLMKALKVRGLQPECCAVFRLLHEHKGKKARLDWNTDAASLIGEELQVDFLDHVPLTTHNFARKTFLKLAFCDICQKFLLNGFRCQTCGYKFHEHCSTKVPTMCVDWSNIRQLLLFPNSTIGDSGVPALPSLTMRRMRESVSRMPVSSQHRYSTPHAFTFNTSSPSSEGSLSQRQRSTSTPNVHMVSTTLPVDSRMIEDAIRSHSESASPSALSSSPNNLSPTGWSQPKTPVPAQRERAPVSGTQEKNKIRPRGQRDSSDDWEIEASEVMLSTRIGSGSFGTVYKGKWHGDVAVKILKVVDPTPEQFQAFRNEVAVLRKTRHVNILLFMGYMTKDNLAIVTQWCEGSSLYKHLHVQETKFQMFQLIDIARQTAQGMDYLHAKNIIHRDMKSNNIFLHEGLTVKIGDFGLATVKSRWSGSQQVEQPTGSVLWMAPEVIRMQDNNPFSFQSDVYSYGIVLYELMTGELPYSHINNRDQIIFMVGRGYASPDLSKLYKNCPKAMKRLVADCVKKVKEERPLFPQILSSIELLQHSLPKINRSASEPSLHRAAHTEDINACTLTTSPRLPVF

| Structure (SMILES) | IC50 [1] [nM] | IC50 [2] [nM] |
| --- | --- | --- |
| Cc1ccc2c(Nc3ccccc3F)nccc2c1NC(=O)c1cccc2c(N)ncnc12 [Compound 39, 4-amino-N-(1-((2-fluorophenyl)amino)-6-methylisoquinolin-5-yl)quinazoline-8-carboxamide] | 2.6 ± 0.21 | 1.74 ± 0.23 |
| Cc1ccc2c(Nc3cc(S(C)(=O)=O)ccc3F)nccc2c1NC(=O)c1cccc2c(N)ncnc12 [Compound 89, 4-amino-N-(1-((2-fluoro-5-(methylsulfonyl)phenyl)amino)-6-methylisoquinolin-5-yl)quinazoline-8-carboxamide] | 4.26 ± 0.16 | 7.58 ± 0.51 |
| Cc1ccc2c(Nc3ccc(F)cc3F)nccc2c1NC(=O)c1cccc2c(N)ncnc12 [Compound 67, 4-amino-N-(1-((2,4-difluorophenyl)amino)-6-methylisoquinolin-5-yl)quinazoline-8-carboxamide] | 5.76 ± 1.04 | 8.66 ± 0.95 |
| Cc1ccc2c(Nc3cccc(Cl)c3F)nccc2c1NC(=O)c1ccc(F)c2c(N)ncnc12 [Compound 93, 4-amino-N-(1-((3-chloro-2-fluorophenyl)amino)-6-methylisoquinolin-5-yl)-5-fluoroquinazoline-8-carboxamide] | 5.73 ± 0.36 | 5.03 ± 0.54 |
| Cc1ccc2c(Nc3c(F)cc(F)cc3F)nccc2c1NC(=O)c1cccc2c(N)ncnc12 [Compound 94, 4-amino-N-(6-methyl-1-((2,4,6-trifluorophenyl)amino)isoquinolin-5-yl)quinazoline-8-carboxamide] | 4.24 ± 0.17 | 3.46 ± 0.22 |
| Cc1ccc2c(Nc3ccc(Cl)cc3F)nccc2c1NC(=O)c1cccc2c(N)ncnc12 [Compound 41, 4-amino-N-(1-((4-chloro-2-fluorophenyl)amino)-6-methylisoquinolin-5-yl)quinazoline-8-carboxamide] | 25 ± 9.32 | 12.7 ± 2.28 |
| Cc1ccc2c(C(O)c3cccc(C(F)(F)F)c3)nccc2c1NC(=O)c1csc2c(N)ncnc12 (stereo not drawn) [Compound 23, 4-amino-N-(1-(hydroxy(3-(trifluoromethyl)phenyl)methyl)-6-methylisoquinolin-5-yl)thieno[3,2-d]pyrimidine-7-carboxamide] | 3.93 ± 1 | 13.2 ± 3.17 |
| Cc1ccc2c(Nc3cc(F)c(F)cc3F)nccc2c1NC(=O)c1cccc2c(N)ncnc12 [Compound 90, 4-amino-N-(6-methyl-1-((2,4,5-trifluorophenyl)amino)isoquinolin-5-yl)quinazoline-8-carboxamide] | 14.2 ± 6.59 | 18.6 ± 2.25 |
| Cc1ccc2c(C(=O)c3cccc(C(F)(F)F)c3)nccc2c1NC(=O)c1csc2c(N)ncnc12 [Compound 22, 4-amino-N-(6-methyl-1-(3-(trifluoromethyl)benzoyl)isoquinolin-5-yl)thieno[3,2-d]pyrimidine-7-carboxamide] | 14.5 ± 9.94 | 26.8 ± 6.82 |
| Cc1ccc2c(Nc3cccc(Cl)c3F)nccc2c1NC(=O)c1cc(F)cc2c(N)ncnc12 [Compound 46, 4-amino-N-(1-((3-chloro-2-fluorophenyl)amino)-6-methylisoquinolin-5-yl)-6-fluoroquinazoline-8-carboxamide] | 38.1 ± 21.9 | 16.2 ± 5.93 |
| Cc1ccc2c(Nc3ccc(F)cc3F)nccc2c1NC(=O)c1cc(F)cc2c(N)ncnc12 [Compound 85, 4-amino-N-(1-((2,4-difluorophenyl)amino)-6-methylisoquinolin-5-yl)-6-fluoroquinazoline-8-carboxamide] | 4.43 ± 0.32 | 9.02 ± 0.86 |
| Cc1ccc2c(Nc3cc(Cl)ccc3F)nccc2c1NC(=O)c1cccc2c(N)ncnc12 [Compound 73, 4-amino-N-(1-((5-chloro-2-fluorophenyl)amino)-6-methylisoquinolin-5-yl)quinazoline-8-carboxamide] | 8.78 ± 1.48 | 11.9 ± 2.3 |
| Cc1ccc2c(Nc3cccc(Cl)c3F)nccc2c1NC(=O)c1cccc2c(N)ncnc12 [Compound 1, 4-amino-N-(1-((3-chloro-2-fluorophenyl)amino)-6-methylisoquinolin-5-yl)quinazoline-8-carboxamide] | 5.4 ± 0.6 | 4.71 ± 2.62 |
| Cc1ccc2c(C(C)Oc3ccccc3)nccc2c1NC(=O)c1csc2c(N)ncnc12 (stereo not drawn) [Compound 35, 4-amino-N-(6-methyl-1-(1-phenoxyethyl)isoquinolin-5-yl)thieno[3,2-d]pyrimidine-7-carboxamide] | 15.4 ± 1.89 | 50.4 ± 12.6 |
| Cc1ccc2c(C(O)c3ccc(Cl)cc3F)nccc2c1NC(=O)c1csc2c(N)ncnc12 (stereo not drawn) [Compound 28, 4-amino-N-(1-((4-chloro-2-fluorophenyl)(hydroxy)methyl)-6-methylisoquinolin-5-yl)thieno[3,2-d]pyrimidine-7-carboxamide] | 3.48 ± 0.48 | 4.58 ± 0.72 |
| Nc1ncnc2c(C(=O)Nc3c(F)ccc4c(Nc5cccc(Cl)c5F)nccc34)cccc12 [Compound 92, 4-amino-N-(1-((3-chloro-2-fluorophenyl)amino)-6-fluoroisoquinolin-5-yl)quinazoline-8-carboxamide] | 10.8 ± 4.78 | 5.34 ± 0.75 |
| Cc1ccc2c(Nc3cccc(Cl)c3)nccc2c1NC(=O)c1cccc2c(N)ncnc12 [Compound 38, 4-amino-N-(1-((3-chlorophenyl)amino)-6-methylisoquinolin-5-yl)quinazoline-8-carboxamide] | 10.8 ± 2.02 | 9.5 ± 2.68 |
| Cc1ccc2c(Cc3cccc(C(F)(F)F)c3)nccc2c1NC(=O)c1csc2c(N)ncnc12 [Compound 19, 4-amino-N-(6-methyl-1-(3-(trifluoromethyl)benzyl)isoquinolin-5-yl)thieno[3,2-d]pyrimidine-7-carboxamide] | 10.3 ± 2.29 | 13.9 ± 3.24 |
